Among the data in US8268827B2, “Pyridazinone derivatives as PARP inhibitors” (Istituto di Ricerche di Biologia Molecolare P. Angeletti …, priority 2007, dated 2012) are IC50 and CC50 values, retold here.

Each structure is given as a SMILES string. Counter-ions that a name gives are not always drawn.

For orientation: IC50 means the concentration that inhibits the measured activity by half. A low value points to inhibition by little substance. As a reminder, the CC50 is the concentration at which the toxic effect on the cells reaches its halfway point.

The target of one experiment is T1, PARP-1 (Homo sapiens, UniProt P09874).
T1 construct: purchased Trevigen 4668-500-01
In words: PARP-1 SPA assay. The format is biochemical. On the procedure:
Assay buffer: 100 mM Tris pH 8, 4 mM MgCl2, 4 mM Spermine, 200 mM KCl, 0.04% Nonidet P-40.
Nicotinamide-adenine dinucleotide (NAD)/DNA Mix: [^3H-NAD] (250 uCi/ml, 0.4 ul, Perkin-Elmer NET-443H), NAD (1.5 mM, 0.05 ul, SIGMA N-1511), Biotinylated-NAD (250 uM, 0.03 ul, Trevigen 4670-500-01), Activated calf thymus (1 mg/ml, 0.05 ul, Amersham Biosciences 27-4575), H2O (to 10 ul).
Developing Mix: Streptavidin SPA beads (5 mg/ml, Amersham Biosciences RPNQ 0007) dissolved in 500 mM EDTA.
The reaction is performed in 96-well microplate with a final volume of 50 uL/well. Add 5 ul 5% DMSO/compound solution, add enzyme mix (35 ul), start the reaction by adding NAD/DNA mix (10 uL) and incubate for 2 hrs at RT. Stop the reaction by adding developing mix (25 ul) and incubate 15 min at RT. Measure using a Packard TOP COUNT instrument.

Experiment [1] concerns BRCA-1 silenced HeLa cells (HeLa shBRCA1-GFP). In words: Proliferation assay in BRCA-1 silenced HeLa cells. The format is cell-based. As to conditions: Homo sapiens; BRCA1 silenced HeLa cells, 168 hours; read-out: CC50 in the BRCA1 silenced HeLa cells. Put shortly:
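HeLa cells with lentiviral shRNA BRCA1 knockdown (>80%), compared with control-vector HeLa, seeded at 300 cells/well. Compound exposure lasted 168 h at 37° C. Viability was read as resazurin-to-resorufin fluorescence (ex 550/em 590 nm).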

T1 sequence (P09874 whole entry): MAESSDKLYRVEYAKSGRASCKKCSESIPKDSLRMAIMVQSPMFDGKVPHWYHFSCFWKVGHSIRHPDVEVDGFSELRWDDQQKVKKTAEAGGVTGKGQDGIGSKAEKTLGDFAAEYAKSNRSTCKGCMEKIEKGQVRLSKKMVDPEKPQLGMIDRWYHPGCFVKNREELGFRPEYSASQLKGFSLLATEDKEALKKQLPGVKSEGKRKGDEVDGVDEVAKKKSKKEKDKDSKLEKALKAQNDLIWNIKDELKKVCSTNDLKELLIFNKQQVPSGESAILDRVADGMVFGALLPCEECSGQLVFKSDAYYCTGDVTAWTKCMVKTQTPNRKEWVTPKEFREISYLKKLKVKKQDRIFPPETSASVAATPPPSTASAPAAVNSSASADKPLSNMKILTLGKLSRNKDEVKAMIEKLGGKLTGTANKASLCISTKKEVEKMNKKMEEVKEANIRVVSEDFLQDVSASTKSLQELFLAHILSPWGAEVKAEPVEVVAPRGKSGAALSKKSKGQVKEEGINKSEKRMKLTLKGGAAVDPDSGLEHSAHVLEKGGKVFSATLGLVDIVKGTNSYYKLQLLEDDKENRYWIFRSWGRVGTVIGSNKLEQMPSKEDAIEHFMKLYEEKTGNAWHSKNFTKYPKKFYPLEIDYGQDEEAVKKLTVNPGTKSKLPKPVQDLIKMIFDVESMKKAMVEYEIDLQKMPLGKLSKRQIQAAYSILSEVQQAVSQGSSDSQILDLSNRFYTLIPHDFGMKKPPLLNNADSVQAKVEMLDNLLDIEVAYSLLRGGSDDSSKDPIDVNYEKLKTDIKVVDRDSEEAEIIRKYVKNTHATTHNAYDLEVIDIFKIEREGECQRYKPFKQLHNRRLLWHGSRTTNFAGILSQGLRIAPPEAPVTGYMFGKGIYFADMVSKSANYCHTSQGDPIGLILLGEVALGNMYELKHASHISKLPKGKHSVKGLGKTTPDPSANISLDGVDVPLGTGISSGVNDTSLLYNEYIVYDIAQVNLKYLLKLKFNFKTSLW

As for `Cc1c(Cc2ccc(F)c(C(=O)N3CCN([C@H]4CC[C@H](F)C4)C(=O)C3)c2)n[nH]c(=O)c1C` (relative stereo) [Example 212, 6-[4-Fluoro-3-({4-[(trans)-3-fluorocyclopentyl]-3-oxopiperazin-1-yl}carbonyl)benzyl]-4,5-dimethylpyridazin-3(2H)-one], on PARP-1, the half-maximal inhibitory concentration (IC50) lay in the range of 5 to 25 nM. Consider `Cc1c(Cc2ccc(F)c(C(=O)N3CCN(C)C(=O)C3)c2)n[nH]c(=O)c1C` [Example 7, 3-{4-Fluoro-3-[(4-methyl-3-oxopiperazin-1-yl)carbonyl]benzyl}-4,5-dimethyl-6-oxo-1,6-dihydropyridazin-1-ium trifluoroacetate], for which the IC50 at PARP-1 fell in the range of 5 to 25 nM.

For the molecule `COC(=O)CN1CCN(C(=O)c2cc(Cc3n[nH]c(=O)c(C)c3C)ccc2F)CC1=O` [Example 24, Methyl (4-{5-[(4,5-dimethyl-6-oxo-1,6-dihydropyridazin-3-yl)methyl]-2-fluorobenzoyl}-2-oxopiperazin-1-yl)acetate trifluoroacetate], the IC50 against PARP-1 fell in the range of 5 to 25 nM. On PARP-1, `Cc1c(Cc2ccc(F)c(C(=O)N3CCCN(C4CCCCC4)C(=O)C3)c2)n[nH]c(=O)c1C` [Example 34, 6-{3-[(4-Cyclohexyl-3-oxo-1,4-diazepan-1-yl)carbonyl]-4-fluorobenzyl}-4,5-dimethyl-3-oxo-2,3-dihydropyridazin-1-ium trifluoroacetate] had an IC50 of 5 to 25 nM. With `Cc1c(Cc2ccc(F)c(C(=O)N3CCN(C4CCCCC4)C(=O)C3(C)C)c2)n[nH]c(=O)c1C` [Example 37, 3-{3-[(4-Cyclohexyl-2,2-dimethyl-3-oxopiperazin-1-yl)carbonyl]-4-fluorobenzyl}-4,5-dimethyl-6-oxo-1,6-dihydropyridazin-1-ium trifluoroacetate], the half-maximal inhibitory concentration (IC50) against PARP-1 was in the range of 25 to 150 nM.

In turn, `Cc1c(Cc2ccc(F)c(C(=O)N3C[C@@H]4C[C@H]3C(=O)N4c3ccccc3)c2)n[nH]c(=O)c1C` [Example 41, (1S,4S)-5-{5-[(4,5-Dimethyl-6-oxo-1,6-dihydropyridazin-3-yl)methyl]-2-fluorobenzoyl}-2-phenyl-2,5-diazabicyclo[2.2.1]heptan-3-one trifluoroacetate] had an IC50 at PARP-1 of 25 to 150 nM. As to `Cc1c(Cc2ccc(F)c(C(=O)N3CCN(CCF)C(=O)C3)c2)n[nH]c(=O)c1C` [Example 58, 6-(4-Fluoro-3-{[4-(2-fluoroethyl)-3-oxopiperazin-1-yl]carbonyl}benzyl)-4,5-dimethyl-3-oxo-2,3-dihydropyridazin-1-ium trifluoroacetate], the IC50 against PARP-1 was in the range of 5 to 25 nM. For `Cc1c(Cc2ccc(F)c(C(=O)N3CC(=O)N(c4ccc(C#N)c(F)c4)[C@H](C)C3)c2)n[nH]c(=O)c1C` [Example 191, 4-((2R)-4-{5-[(4,5-Dimethyl-6-oxo-1,6-dihydropyridazin-3-yl)methyl]-2-fluorobenzoyl}-2-methyl-6-oxopiperazin-1-yl)-2-fluorobenzonitrile], the CC50 in experiment [1] was under 50 nM. On the same count and under the same terms, then `Cc1c(Cc2ccc(F)c(C(=O)N3CCN([C@@H](C)C(F)(F)F)C(=O)C3)c2)n[nH]c(=O)c1C` [Example 192, 6-[4-Fluoro-3-({3-oxo-4-[(1S)-2,2,2-trifluoro-1-methylethyl]piperazin-1-yl}carbonyl)benzyl]-4,5-dimethylpyridazin-3(2H)-one], with 50 to 500 nM; and `Cc1c(Cc2ccc(F)c(C(=O)N3CC(=O)N(c4cc(F)cc(F)c4)[C@H](C)C3)c2)n[nH]c(=O)c1C` [Example 193, 6-(3-{[(3R)-4-(3,5-Difluorophenyl)-3-methyl-5-oxopiperazin-1-yl]carbonyl}-4-fluorobenzyl)-4,5-dimethylpyridazin-3(2H)-one], with under 50 nM; and `Cc1c(Cc2ccc(F)c(C(=O)N3CC(=O)N(c4ccc(Cl)cc4)[C@H](C)C3)c2)n[nH]c(=O)c1C` [Example 194, 6-(3-{[(3R)-4-(4-Chlorophenyl)-3-methyl-5-oxopiperazin-1-yl]carbonyl}-4-fluorobenzyl)-4,5-dimethylpyridazin-3(2H)-one], with under 50 nM.

Take `Cc1c(Cc2ccc(F)c(C(=O)N3CC(=O)N(c4cccs4)[C@H](C)C3)c2)n[nH]c(=O)c1C` [Example 195, 6-(4-Fluoro-3-{[(3R)-3-methyl-5-oxo-4-(2-thienyl)piperazin-1-yl]carbonyl}benzyl)-4,5-dimethylpyridazin-3(2H)-one]: the cytotoxic concentration (CC50) in experiment [1] was under 50 nM.

On to `Cc1c(Cc2ccc(F)c(C(=O)N3CC(=O)N(c4ccc(Cl)cc4F)[C@H](C)C3)c2)n[nH]c(=O)c1C` [Example 196, 6-(3-{[(3R)-4-(4-Chloro-2-fluorophenyl)-3-methyl-5-oxopiperazin-1-yl]carbonyl}-4-fluorobenzyl)-4,5-dimethylpyridazin-3(2H)-one], for which the CC50 in experiment [1] was under 50 nM. On the same count and under the same terms, for `Cc1c(Cc2ccc(F)c(C(=O)N3CC(=O)N(c4ccc(F)c(C#N)c4)[C@H](C)C3)c2)n[nH]c(=O)c1C` [Example 197, 5-((2R)-4-{5-[(4,5-Dimethyl-6-oxo-1,6-dihydropyridazin-3-yl)methyl]-2-fluorobenzoyl}-2-methyl-6-oxopiperazin-1-yl)-2-fluorobenzonitrile] the value was under 50 nM; for `Cc1c(Cc2ccc(F)c(C(=O)N3CC(=O)N(c4cc(F)cc(Cl)c4)[C@H](C)C3)c2)n[nH]c(=O)c1C` [Example 198, 6-(3-{[(3R)-4-(3-Chloro-5-fluorophenyl)-3-methyl-5-oxopiperazin-1-yl]carbonyl}-4-fluorobenzyl)-4,5-dimethylpyridazin-3(2H)-one], under 50 nM. The same measure, in the same setting: then `Cc1c(Cc2ccc(F)c(C(=O)N3CC(=O)N(c4ccc(F)c(Cl)c4)[C@H](C)C3)c2)n[nH]c(=O)c1C` [Example 199, 6-(3-{[(3R)-4-(3-Chloro-4-fluorophenyl)-3-methyl-5-oxopiperazin-1-yl]carbonyl}-4-fluorobenzyl)-4,5-dimethylpyridazin-3(2H)-one], with under 50 nM.

In the case of `Cc1c(Cc2ccc(F)c(C(=O)N3CCN([C@H](C)C(F)(F)F)C(=O)C3)c2)n[nH]c(=O)c1C` [Example 200, 6-[4-Fluoro-3-({3-oxo-4-[(1R)-2,2,2-trifluoro-1-methylethyl]piperazin-1-yl}carbonyl)benzyl]-4,5-dimethylpyridazin-3(2H)-one], in experiment [1], the CC50 is under 50 nM.

For the molecule `Cc1c(Cc2ccc(F)c(C(=O)N3CC(=O)N(c4ccc(C#N)cc4F)[C@H](C)C3)c2)n[nH]c(=O)c1C` [Example 201, 4-((2R)-4-{5-[(4,5-Dimethyl-6-oxo-1,6-dihydropyridazin-3-yl)methyl]-2-fluorobenzoyl}-2-methyl-6-oxopiperazin-1-yl)-3-fluorobenzonitrile], the CC50 in experiment [1] is under 50 nM. The same measure, in the same setting: for `Cc1c(Cc2ccc(F)c(C(=O)N3CC(=O)N(c4cc(F)cc(C#N)c4)[C@H](C)C3)c2)n[nH]c(=O)c1C` [Example 202, 3-((2R)-4-{5-[(4,5-Dimethyl-6-oxo-1,6-dihydropyridazin-3-yl)methyl]-2-fluorobenzoyl}-2-methyl-6-oxopiperazin-1-yl)-5-fluorobenzonitrile] the value was under 50 nM.

In the case of `Cc1c(Cc2ccc(F)c(C(=O)N3CC(=O)N(c4ccc(F)c(F)c4)[C@H](C)C3)c2)n[nH]c(=O)c1C` [Example 203, 6-(3-{[(3R)-4-(3,4-Difluorophenyl)-3-methyl-5-oxopiperazin-1-yl]carbonyl}-4-fluorobenzyl)-4,5-dimethylpyridazin-3(2H)-one], in experiment [1], the CC50 was under 50 nM. In the case of `Cc1c(Cc2ccc(F)c(C(=O)N3CCN(C(C)C4CC4)C(=O)C3)c2)n[nH]c(=O)c1C` (stereo not shown) [Example 204, 6-(3-{[4-(1-Cyclopropylethyl)-3-oxopiperazin-1-yl]carbonyl}-4-fluorobenzyl)-4,5-dimethylpyridazin-3(2H)-one], in experiment [1], the CC50 lay within 50 to 500 nM. Same read-out and setting: then `Cc1c(Cc2ccc(F)c(C(=O)N3CC(=O)N(c4cc(Cl)ccc4F)[C@H](C)C3)c2)n[nH]c(=O)c1C` [Example 205, 6-(3-{[(3R)-4-(5-Chloro-2-fluorophenyl)-3-methyl-5-oxopiperazin-1-yl]carbonyl}-4-fluorobenzyl)-4,5-dimethylpyridazin-3(2H)-one], with under 50 nM; and `Cc1c(Cc2ccc(F)c(C(=O)N3CC(=O)N(c4cccc(Cl)c4F)[C@H](C)C3)c2)n[nH]c(=O)c1C` [Example 206, 6-(3-{[(3R)-4-(3-Chloro-2-fluorophenyl)-3-methyl-5-oxopiperazin-1-yl]carbonyl}-4-fluorobenzyl)-4,5-dimethylpyridazin-3(2H)-one], with under 50 nM.

As to `Cc1c(Cc2ccc(F)c(C(=O)N3CC(=O)N(c4ccc(Cl)c(F)c4)[C@@H](C)C3)c2)n[nH]c(=O)c1C` [Example 208, 6-(3-{[(3S)-4-(4-Chloro-3-fluorophenyl)-3-methyl-5-oxopiperazin-1-yl]carbonyl}-4-fluorobenzyl)-4,5-dimethylpyridazin-3(2H)-one], the CC50 in experiment [1] is under 50 nM. Same read-out and setting: for `Cc1c(Cc2ccc(F)c(C(=O)N3CC(=O)N(C4CC(F)(F)C4)[C@@H](C)C3)c2)n[nH]c(=O)c1C` [Example 209, 6-(3-{[(3S)-4-(3,3-Difluorocyclobutyl)-3-methyl-5-oxopiperazin-1-yl]carbonyl}-4-fluorobenzyl)-4,5-dimethylpyridazin-3(2H)-one] the value was under 50 nM.
